Patent US5256686A, “Phenylalkan(en)oic acid” (Ono Pharmaceutical Co., Ltd., priority 1989, dated 1993)

target: T1, human PMNL LTB4 receptor (Homo sapiens, UniProt Q15722); assay: Binding affinity of 3H-LTB4 antagonist to human PMNL LTB4 receptor (inhibition of specific 3H-LTB4 binding); conditions: 1 nM 3H-LTB4, human PMNLs, 4° C., 20 min
T1 construct: endogenous in cells; host or cells: human polymorphonuclear leukocytes (PMNL), intact cells
Protocol: Human PMNLS (1×10^7 cells) were incubated with 1 nM ^3 H-LTB4 in Hanks balanced salt solution (1 ml) at 4° C. for 20 min. in the presence or absence of increasing concentrations of unlabeled LTB4 or various compounds. Free ^3 H-LTB4 was separated from PMNLs-bound ligands by vacuum filteration through Whatman GF/B or C glass fiber filters. The filters were then washed rapidly 4 times with 2.5 ml of the ice-cold phosphate buffered saline. The radioactivity retained in the filter was determined by liquid scintillation counting. Specific binding was defined as the difference between total binding and binding in the presence of 3 μM LTB4 (nonspecific binding). The inhibitory effect of specific ^3 H-LTB4 binding was calculated from the following equation.
The percentage of inhibition (%)=100-(B1 /B0 ×100)
B1 : specific ^3 H-LTB4 binding in presence of antagonist
B0 : specific ^3 H-LTB4 binding in absence of antagonist

T1 sequence (Q15722 whole entry): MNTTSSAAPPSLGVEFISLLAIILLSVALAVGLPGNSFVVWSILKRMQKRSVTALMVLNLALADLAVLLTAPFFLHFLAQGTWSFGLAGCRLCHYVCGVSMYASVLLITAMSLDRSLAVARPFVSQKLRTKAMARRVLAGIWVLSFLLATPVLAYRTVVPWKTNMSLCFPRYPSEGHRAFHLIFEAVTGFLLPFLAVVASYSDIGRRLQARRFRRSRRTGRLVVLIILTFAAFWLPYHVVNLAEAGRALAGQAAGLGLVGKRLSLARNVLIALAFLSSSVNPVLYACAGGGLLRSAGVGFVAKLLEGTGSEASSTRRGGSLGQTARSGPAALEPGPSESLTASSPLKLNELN

SMILES | IC50
COc1ccc(/C=C/CCCCOc2ccc(NC(=O)c3cccc(CO)c3)cc2CCC(=O)O)cc1 [4 (b), 3-[1-[6-(4-methoxyphenyl)hex-5E-enyl]oxy-4-(3-hydroxymethylbenzamido)benzen-2yl]propionic acid] | 0.06 µM
CCCCCC(O)/C=C/CCCCOc1ccc(NC(=O)CCCC(=O)N(C)C)cc1CCC(=O)O (stereo not drawn) [5 (b), 3-[1-(5E-7-hydroxydodecenyl)oxy-4-dimethylaminocarbonylbutanamidobenzen-2-yl]propionic acid] | 0.3 µM
COc1ccc(CCC(O)/C=C/CCCCOc2ccc(NC(=O)CCCC(=O)N(C)C)cc2CCC(=O)O)cc1 (stereo not drawn) [5 (c), 3-[1-[5E-7-hydroxy-9-(4-methoxyphenyl)nonenyl]oxy-4-dimethylaminocarbonylbutanamidobenzen-2-yl]propionic acid] | 0.7 µM
CN(C)C(=O)CCCC(=O)Nc1ccc(OCCCC/C=C/C(O)C2CCCCC2)c(CCC(=O)O)c1 (stereo not drawn) [5 (e), 3-[1-(5E-7-hydroxy-7-cyclohexylheptenyl)oxy-4-dimethylaminocarbonylbutanamidobenzen-2-yl]propionic acid] | 0.35 µM
COc1ccc(/C=C/CCCCOc2ccc(NS(C)(=O)=O)cc2CCC(=O)O)cc1 [6 (b), 3-[1-[6-(4-methoxyphenyl)hex-5E-enyl]oxy-4-methylsulfonylaminobenzen-2-yl]propionic acid] | 0.03 µM
COc1ccc(/C=C/CCCCOc2ccc(NS(=O)(=O)Cc3ccccc3)cc2CCC(=O)O)cc1 [6 (c), 3-[1-[6-(4-methoxyphenyl)hex-5E-enyl]oxy-4-benzylsulfonylaminobenzen-2-yl]propionic acid] | 0.2 µM
COc1ccc(/C=C/CCCCOc2ccc(NS(=O)(=O)CCCC(=O)N(C)C)cc2CCC(=O)O)cc1 [7 (a), 3-[1-[6-(4-methoxyphenyl)hex-5E-enyl]oxy-4-(3-dimethylaminocarbonyl-n-propyl)sulfonylaminobenzen-2-yl]propionic acid] | 0.03 µM
COc1ccc(/C=C/CCCCOc2ccc(N(S(=O)(=O)Cc3ccccc3)S(=O)(=O)Cc3ccccc3)cc2CCC(=O)O)cc1 [10 (c), 3-[1-[6-(4-methoxyphenyl)hex-5E-enyl]oxy-4-bis(benzylsulfonyl)aminobenzen-2-yl]propionic acid] | 1 µM
COc1ccc(/C=C/CCCCOc2ccc(N3C(=O)CCS3(=O)=O)cc2CCC(=O)O)cc1 [12 (b), 3-[1-[6-(4-methoxyphenyl)hex-5E-enyl]oxy-4-(isothiazolidin-1,1,3-trione-2-yl)benzen-2-yl]propionic acid] | 0.006 µM
COc1ccc(CCCCCCOc2cccc(OCCCCC(=O)N(C)C)c2CCC(=O)O)cc1 [30 (b), 3-[1-[6-(4-methoxyphenyl)hexyl]oxy-3-(4-dimethylaminocarbonylbutyl)oxybenzen-2-yl]propionic acid] | 0.15 µM
COc1ccc(/C=C/CCCCOc2ccc(NC(=O)CCCC(=O)N3CCOCC3)cc2CCC(=O)O)cc1 [Example 1, 3-[1-[6-(4-methoxyphenyl)hex-5E-enyl]oxy-4-(5-oxo-5-morpholinopentanamido)benzen-2-yl]propionic acid] | 0.13 µM
COc1ccc(/C=C/CCCCOc2ccc(NC(=O)CCCC(=O)O)cc2CCC(=O)O)cc1 [Example 2, 3-[1-[6-(4-methoxyphenyl)hex-5E-enyl]oxy-4-(4-carboxylbutanamido)benzen-2-yl]propionic acid] | 0.04 µM
CCCCCCC(=O)Nc1ccc(OCCCC/C=C/c2ccc(OC)cc2)c(CCC(=O)O)c1 [Example 3, 3-[1-[6-(4-methoxyphenyl)hex-5E-enyl]oxy-4-heptanamidobenzen-2-yl]propionicacid] | 0.17 µM
COc1ccc(/C=C/CCCCOc2ccc(NC(=O)CCCCO)cc2CCC(=O)O)cc1 [Example 4, 3-[1-[6-(4-methoxyphenyl)hex-5E-enyl]oxy-4-(5-hydroxypentanamido)benzen-2-yl]propionic acid] | 0.09 µM
CCCCCCCCC(O)/C=C/CCCCOc1ccc(NC(=O)CCCC(=O)N(C)C)cc1CCC(=O)O (stereo not drawn) [Example 5, 3-[1-(5E-7-hydroxypentadecenyl)oxy-4-(4-dimethylaminocarbonylbutanamido)benzen-2-yl]propionic acid] | 0.02 µM
